One experiment is filed under the species Mus musculus. Nature of the experiment: Selectivity ratio of EC50s for mouse corticotropin releasing factor receptors 1 and 2.
The target of experiment [1] is T1, Corticotropin-releasing factor receptor 1 (Mus musculus, UniProt P35347).
T1 sequence (P35347 whole entry): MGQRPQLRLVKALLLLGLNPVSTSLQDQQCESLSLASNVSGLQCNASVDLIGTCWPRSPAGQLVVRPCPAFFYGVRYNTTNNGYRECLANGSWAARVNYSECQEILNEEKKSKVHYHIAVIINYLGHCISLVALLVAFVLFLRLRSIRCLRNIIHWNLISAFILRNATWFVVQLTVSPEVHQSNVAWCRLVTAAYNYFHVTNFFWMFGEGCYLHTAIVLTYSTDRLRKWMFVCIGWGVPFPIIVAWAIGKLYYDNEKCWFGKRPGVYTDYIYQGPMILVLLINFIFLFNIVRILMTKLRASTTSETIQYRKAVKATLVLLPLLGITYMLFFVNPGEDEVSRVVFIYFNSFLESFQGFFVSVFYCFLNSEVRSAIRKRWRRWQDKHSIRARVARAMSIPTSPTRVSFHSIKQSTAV
Nature of the experiment: In vitro effective concentration for mouse corticotropin releasing factor 1 receptor.

For experiment [2], the target named is Corticotropin-releasing factor receptor 2 (Mus musculus, UniProt Q60748). Briefly: In vitro effective concentration for mouse corticotropin releasing factor 2 receptor.
Experiment [3] has as its target T2, Corticotropin-releasing factor receptor 1 (Mus musculus) (UniProt P35347).
T2 sequence (whole entry): T1 sequence (P35347 whole entry)
Briefly: In vitro agonistic activity against mouse corticotropin releasing factor 1 receptor. In kind it is functional.

Experiment [4] addresses Corticotropin-releasing factor receptor 2 (Mus musculus) (UniProt Q60748). Briefly: In vitro agonistic activity against mouse corticotropin releasing factor 2 receptor. In kind it is functional.

This passage reports Selectivity, EC50 and Emax results from ChEMBL document CHEMBL1139487, “Discovery of corticotropin releasing factor 2 receptor selective sauvagine analogues for treatment of skeletal muscle atrophy” (J Med Chem, 2005).

Where only a bound is given, the exact number is not on record here.

Chain of Corticotropin-releasing factor receptor 2 (Mus musculus) (Q60748 whole entry): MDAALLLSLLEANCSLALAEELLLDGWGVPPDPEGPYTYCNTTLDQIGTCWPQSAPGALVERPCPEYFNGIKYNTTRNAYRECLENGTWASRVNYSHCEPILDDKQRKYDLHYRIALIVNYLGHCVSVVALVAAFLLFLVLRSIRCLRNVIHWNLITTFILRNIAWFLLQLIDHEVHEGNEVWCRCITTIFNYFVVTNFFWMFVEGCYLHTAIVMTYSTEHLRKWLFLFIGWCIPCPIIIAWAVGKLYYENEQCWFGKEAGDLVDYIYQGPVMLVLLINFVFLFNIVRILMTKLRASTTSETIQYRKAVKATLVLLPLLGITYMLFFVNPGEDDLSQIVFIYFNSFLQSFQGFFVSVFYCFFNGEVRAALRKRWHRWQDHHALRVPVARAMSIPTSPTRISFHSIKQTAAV
Chain of Corticotropin-releasing factor receptor 2 (Q60748 whole entry): as above

In the case of `CC[C@H](C)[C@H](NC(=O)[C@@H](NC(=O)[C@H](CC(=O)O)NC(=O)[C@H](CC(C)C)NC(=O)[C@H](CC(C)C)NC(=O)[C@H](CC(C)C)NC(=O)[C@H](CCCN=C(N)N)NC(=O)[C@H](CC(N)=O)NC(=O)[C@H](CC(N)=O)NC(=O)[C@H](C)NC(=O)[C@H](C)NC(=O)[C@H](CCC(N)=O)NC(=O)[C@H](CCC(N)=O)NC(=O)[C@H](CCCCN)NC(=O)[C@H](CCC(=O)O)NC(=O)[C@H](CCCCN)NC(=O)[C@H](CCC(=O)O)NC(=O)[C@H](CCC(N)=O)NC(=O)[C@H](CCCCN)NC(=O)[C@H](CCC(=O)O)NC(=O)[C@@H](NC(=O)[C@H](CCC(=O)O)NC(=O)[C@@H](NC(=O)[C@H](CCSC)NC(=O)[C@H](CCCCN)NC(=O)[C@H](CCCN=C(N)N)NC(=O)[C@H](CC(C)C)NC(=O)[C@H](CC(C)C)NC(=O)[C@@H](NC(=O)[C@H](Cc1ccc(O)cc1)NC(=O)[C@@H]1CCCN1C(=O)[C@H](CC(C)C)NC(=O)[C@H](CC(=O)O)NC(=O)[C@@H](NC(=O)[C@H](CO)NC(=O)[C@@H](NC(=O)[C@@H]1CCCN1C(=O)[C@@H]1CCCN1C(=O)CNC(=O)[C@@H]1CCC(=O)N1)[C@@H](C)CC)[C@@H](C)CC)[C@@H](C)O)[C@@H](C)CC)[C@@H](C)CC)[C@@H](C)O)C(=O)O`, the Selectivity in the experiment filed under Mus musculus is 21. Besides, the EC50 in experiment [1] was determined as 189 nM; in experiment [2], 8.8 nM. The Emax stood at 99% in experiment [3] and 100% in experiment [4].
Consider `CC[C@H](C)[C@H](NC(=O)[C@@H](NC(=O)[C@H](CC(=O)O)NC(=O)[C@H](CC(C)C)NC(=O)[C@H](CC(C)C)NC(=O)[C@H](CC(C)C)NC(=O)[C@H](CCCN=C(N)N)NC(=O)[C@H](CC(N)=O)NC(=O)[C@H](CC(N)=O)NC(=O)[C@H](C)NC(=O)[C@H](C)NC(=O)[C@H](CCC(N)=O)NC(=O)[C@H](CCC(N)=O)NC(=O)[C@H](CCCCN)NC(=O)[C@H](CCC(=O)O)NC(=O)[C@H](CCCCN)NC(=O)[C@H](CCC(=O)O)NC(=O)[C@H](CCC(N)=O)NC(=O)[C@H](CCCCN)NC(=O)[C@H](CCC(=O)O)NC(=O)[C@@H](NC(=O)[C@H](CCC(=O)O)NC(=O)[C@@H](NC(=O)[C@H](CCSC)NC(=O)[C@H](CCCCN)NC(=O)[C@H](CCCN=C(N)N)NC(=O)[C@H](CC(C)C)NC(=O)[C@H](CC(C)C)NC(=O)[C@H](CC(C)C)NC(=O)[C@@H](NC(=O)[C@@H]1CCCN1C(=O)[C@H](CC(C)C)NC(=O)[C@H](CC(=O)O)NC(=O)[C@@H](NC(=O)[C@H](CO)NC(=O)[C@@H](NC(=O)[C@@H]1CCCN1C(=O)[C@@H]1CCCN1C(=O)CNC(=O)[C@@H]1CCC(=O)N1)[C@@H](C)CC)[C@@H](C)CC)[C@@H](C)O)[C@@H](C)CC)[C@@H](C)CC)[C@@H](C)O)C(=O)O`, for which the Selectivity in the experiment filed under Mus musculus is more than 49. The Emax in experiment [3] was 48%; in experiment [4], 100%.
The corresponding values for `CC[C@H](C)[C@H](NC(=O)[C@@H](NC(=O)[C@H](CC(=O)O)NC(=O)[C@H](CC(C)C)NC(=O)[C@H](CC(C)C)NC(=O)[C@H](CC(C)C)NC(=O)[C@H](CCCN=C(N)N)NC(=O)[C@H](CC(N)=O)NC(=O)[C@H](CC(N)=O)NC(=O)[C@H](C)NC(=O)[C@H](C)NC(=O)[C@H](CCC(N)=O)NC(=O)[C@H](CCC(N)=O)NC(=O)[C@H](CCCCN)NC(=O)[C@H](CCC(=O)O)NC(=O)[C@H](CCCCN)NC(=O)[C@H](CCC(=O)O)NC(=O)[C@H](CCC(N)=O)NC(=O)[C@H](CCCCN)NC(=O)[C@H](CCC(=O)O)NC(=O)[C@@H](NC(=O)[C@H](CCC(=O)O)NC(=O)[C@@H](NC(=O)[C@H](CCSC)NC(=O)[C@H](CCCCN)NC(=O)[C@H](CCCN=C(N)N)NC(=O)[C@H](CC(C)C)NC(=O)[C@H](CC(C)C)NC(=O)[C@H](CCC(N)=O)NC(=O)[C@H](Cc1ccc(O)cc1)NC(=O)[C@@H]1CCCN1C(=O)[C@H](CC(C)C)NC(=O)[C@H](CC(=O)O)NC(=O)[C@@H](NC(=O)[C@H](CO)NC(=O)[C@@H](NC(=O)[C@@H]1CCCN1C(=O)[C@@H]1CCCN1C(=O)CNC(=O)[C@@H]1CCC(=O)N1)[C@@H](C)CC)[C@@H](C)CC)[C@@H](C)CC)[C@@H](C)CC)[C@@H](C)O)C(=O)O` are 47, 100% and 99%.
The corresponding values for `CC[C@H](C)[C@H](NC(=O)[C@@H](NC(=O)[C@H](CC(=O)O)NC(=O)[C@H](CC(C)C)NC(=O)[C@H](CC(C)C)NC(=O)[C@H](CC(C)C)NC(=O)[C@H](CCCN=C(N)N)NC(=O)[C@H](CC(N)=O)NC(=O)[C@H](CC(N)=O)NC(=O)[C@H](C)NC(=O)[C@H](C)NC(=O)[C@H](CCC(N)=O)NC(=O)[C@H](CCC(N)=O)NC(=O)[C@H](CCCCN)NC(=O)[C@H](CCC(=O)O)NC(=O)[C@H](CCCCN)NC(=O)[C@H](CCC(=O)O)NC(=O)[C@H](CCC(N)=O)NC(=O)[C@H](CCCCN)NC(=O)[C@H](CCC(=O)O)NC(=O)[C@@H](NC(=O)[C@H](CCC(=O)O)NC(=O)[C@@H](NC(=O)[C@H](CCSC)NC(=O)[C@H](CCCCN)NC(=O)[C@H](CCCN=C(N)N)NC(=O)[C@H](CC(C)C)NC(=O)[C@H](CC(C)C)NC(=O)[C@H](Cc1ccc(O)cc1)NC(=O)[C@H](Cc1ccc(O)cc1)NC(=O)[C@@H]1CCCN1C(=O)[C@H](CC(C)C)NC(=O)[C@H](CC(=O)O)NC(=O)[C@@H](NC(=O)[C@H](CO)NC(=O)[C@@H](NC(=O)[C@@H]1CCCN1C(=O)[C@@H]1CCCN1C(=O)CNC(=O)[C@@H]1CCC(=O)N1)[C@@H](C)CC)[C@@H](C)CC)[C@@H](C)CC)[C@@H](C)CC)[C@@H](C)O)C(=O)O` are 15, 99% and 93%.
The corresponding values for `CC[C@H](C)[C@H](NC(=O)[C@@H](NC(=O)[C@H](CC(=O)O)NC(=O)[C@H](CC(C)C)NC(=O)[C@H](CC(C)C)NC(=O)[C@H](CC(C)C)NC(=O)[C@H](CCCN=C(N)N)NC(=O)[C@H](CC(N)=O)NC(=O)[C@H](CC(N)=O)NC(=O)[C@H](C)NC(=O)[C@H](C)NC(=O)[C@H](CCC(N)=O)NC(=O)[C@H](CCC(N)=O)NC(=O)[C@H](CCCCN)NC(=O)[C@H](CCC(=O)O)NC(=O)[C@H](CCCCN)NC(=O)[C@H](CCC(=O)O)NC(=O)[C@H](CCC(N)=O)NC(=O)[C@H](CCCCN)NC(=O)[C@H](CCC(=O)O)NC(=O)[C@@H](NC(=O)[C@H](CCC(=O)O)NC(=O)[C@@H](NC(=O)[C@H](CCSC)NC(=O)[C@H](CCCCN)NC(=O)[C@H](CCCN=C(N)N)NC(=O)[C@H](CC(C)C)NC(=O)[C@H](CC(C)C)NC(=O)[C@H](CCC(N)=O)NC(=O)[C@H](CC(C)C)NC(=O)[C@@H]1CCCN1C(=O)[C@H](CC(C)C)NC(=O)[C@H](CC(=O)O)NC(=O)[C@@H](NC(=O)[C@H](CO)NC(=O)[C@@H](NC(=O)[C@@H]1CCCN1C(=O)[C@@H]1CCCN1C(=O)CNC(=O)[C@@H]1CCC(=O)N1)[C@@H](C)CC)[C@@H](C)CC)[C@@H](C)CC)[C@@H](C)CC)[C@@H](C)O)C(=O)O` are 65, 100% and 88%.
With `CC[C@H](C)[C@H](NC(=O)[C@@H](NC(=O)[C@H](CC(=O)O)NC(=O)[C@H](CC(C)C)NC(=O)[C@H](CC(C)C)NC(=O)[C@H](CC(C)C)NC(=O)[C@H](CCCN=C(N)N)NC(=O)[C@H](CC(N)=O)NC(=O)[C@H](CC(N)=O)NC(=O)[C@H](C)NC(=O)[C@H](C)NC(=O)[C@H](CCC(N)=O)NC(=O)[C@H](CCC(N)=O)NC(=O)[C@H](CCCCN)NC(=O)[C@H](CCC(=O)O)NC(=O)[C@H](CCCCN)NC(=O)[C@H](CCC(=O)O)NC(=O)[C@H](CCC(N)=O)NC(=O)[C@H](CCCCN)NC(=O)[C@H](CCC(=O)O)NC(=O)[C@@H](NC(=O)[C@H](CCC(=O)O)NC(=O)[C@@H](NC(=O)[C@H](CCSC)NC(=O)[C@H](CCCCN)NC(=O)[C@H](CCCN=C(N)N)NC(=O)[C@H](CC(C)C)NC(=O)[C@H](CC(C)C)NC(=O)[C@@H](NC(=O)[C@H](CC(C)C)NC(=O)[C@@H]1CCCN1C(=O)[C@H](CC(C)C)NC(=O)[C@H](CC(=O)O)NC(=O)[C@@H](NC(=O)[C@H](CO)NC(=O)[C@@H](NC(=O)[C@@H]1CCCN1C(=O)[C@@H]1CCCN1C(=O)CNC(=O)[C@@H]1CCC(=O)N1)[C@@H](C)CC)[C@@H](C)CC)C(C)C)[C@@H](C)CC)[C@@H](C)CC)[C@@H](C)O)C(=O)O`, the Selectivity in the experiment listed under Mus musculus came out at 48. Besides, the Emax in experiment [3] was 95%; in experiment [4], 94%.
On the same counts, the results for `CC[C@H](C)[C@H](NC(=O)[C@@H](NC(=O)[C@H](CC(=O)O)NC(=O)[C@H](CC(C)C)NC(=O)[C@H](CC(C)C)NC(=O)[C@H](CC(C)C)NC(=O)[C@H](CCCN=C(N)N)NC(=O)[C@H](CC(N)=O)NC(=O)[C@H](CC(N)=O)NC(=O)[C@H](C)NC(=O)[C@H](C)NC(=O)[C@H](CCC(N)=O)NC(=O)[C@H](CCC(N)=O)NC(=O)[C@H](CCCCN)NC(=O)[C@H](CCC(=O)O)NC(=O)[C@H](CCCCN)NC(=O)[C@H](CCC(=O)O)NC(=O)[C@H](CCC(N)=O)NC(=O)[C@H](CCCCN)NC(=O)[C@H](CCC(=O)O)NC(=O)[C@@H](NC(=O)[C@H](CCC(=O)O)NC(=O)[C@@H](NC(=O)[C@H](CCSC)NC(=O)[C@H](CCCCN)NC(=O)[C@H](CCCN=C(N)N)NC(=O)[C@H](CC(C)C)NC(=O)[C@H](CC(C)C)NC(=O)[C@H](CCC(N)=O)NC(=O)[C@H](CCC(N)=O)NC(=O)[C@@H]1CCCN1C(=O)[C@H](CC(C)C)NC(=O)[C@H](CC(=O)O)NC(=O)[C@@H](NC(=O)[C@H](CO)NC(=O)[C@@H](NC(=O)[C@@H]1CCCN1C(=O)[C@@H]1CCCN1C(=O)CNC(=O)[C@@H]1CCC(=O)N1)[C@@H](C)CC)[C@@H](C)CC)[C@@H](C)CC)[C@@H](C)CC)[C@@H](C)O)C(=O)O` are 33, 50% and 100%.

As usually defined, the EC50 is the concentration that produces a half-maximal response. The low end stands for a more potent agent, the high end for a less potent agent. What is called Emax is the maximal effect, on the per cent scale that the assay sets.
